Measurements as given in patent publication US6875727B2, “Use of macrolides in pest control” (Syngenta Crop Protection, Inc., priority 1998, dated 2005).

Assays:
Type in all cases: in vivo
[1] = test system: Heliothis virescens larvae; assay: Spray action on transgenic cotton plants against Heliothis virescens larvae
Text: (§1) Young transgenic cotton plants which express the δ-endotoxin CryIIIA are sprayed with an aqueous emulsion spray mixture comprising 100, 50, 10, 5, 1 ppm of emamectin-benzoate respectively. After the spray coating has dried on, the cotton plants are populated with 10 adult Anthonomus grandis, 10 Spodoptera littoralis larvae or 10 Heliothis virescens larvae respectively and introduced into a plastic container. Evaluation takes place 3 to 10 days later. The percentage reduction in population, or the percentage reduction in feeding damage (% action), is determined by comparing the number of dead beetles and the feeding damage on the transgenic cotton plants with that of non-transgenic cotton plants which have been treated with an emulsion spray mixture comprising emamectin-benzoate and conventional CryIIIA-toxin at a concentration of in each case 100, 50, 10, 5, 1 ppm respectively.
as §1, with “abamectin” for “emamectin-benzoate”
as §1, with “spinosad” for “emamectin-benzoate”
as §1, with “δ-endotoxin CryIa(c)” for “δ-endotoxin CryIIIA”, “of spinosad” for “of emamectin-benzoate”, “comprising spinosad” for “comprising emamectin-benzoate”
(§2) Young transgenic cotton plants which express the δ-endotoxin CryIa(c) are sprayed with an aqueous emulsion spray mixture comprising 100, 50, 10, 5, 1 ppm of abamectin respectively. After the spray coating has dried on, the cotton plants are populated with 10 adult Anthonomus grandis, 10 Spodoptera littoralis larvae or 10 Heliothis virescens larvae respectively and introduced into a plastic container. Evaluation takes place 3 to 10 days later. […]

[2] = test system: Spodoptera littoralis larvae; assay: Spray action on transgenic cotton plants against Spodoptera littoralis larvae
Text: as §1
as §1, with “abamectin” for “emamectin-benzoate”
as §1, with “spinosad” for “emamectin-benzoate”
as §1, with “δ-endotoxin CryIa(c)” for “δ-endotoxin CryIIIA”, “of spinosad” for “of emamectin-benzoate”, “comprising spinosad” for “comprising emamectin-benzoate”
as §2

[3] = test system: Ostrinia nubilalis; assay: Plot test, maize cv. KnockOut vs conventional maize, natural infestation with Ostrinia nubilalis; conditions: for control of Ostrinia nubilalis on plot (a): plot (a) maize cv. KnockOut, spray 200, 100, 50, 10, 5, 1 ppm, evaluation 6 days later; for control level on plot (b): plot (b) conventional maize, also treated with 200, 100, 50, 10, 5, 1 ppm of the endotoxin expressed by KnockOut, 6 days
Procedure: (§3) A plot (a) planted with maize cv. KnockOut® and an adjacent plot (b) of the same size which is planted with conventional maize, both showing natural infestation with Ostrinia nubilalis, Spodoptera spp. or Heliothis, are sprayed with an aqueous emulsion spray mixture comprising 200, 100, 50, 10, 5, 1 ppm of spinosad. Immediately afterwards, plot (b) is treated with an emulsion spray mixture comprising 200, 100, 50, 10, 5, 1 ppm of the endotoxin expressed by KnockOut®. Evaluation takes place 6 days later. The percentage reduction in population (% action) is determined by comparing the number of dead pests on the plants of plot (a) with that on the plants of plot (b).
as §3, with “sp” for “spp.”, “abamectin.” for “spinosad.”
as §3, with “sp” for “spp.”, “emamectin benzoate.” for “spinosad.”

[4] = test system: Heliothis spp.; assay: Plot test, maize cv. KnockOut vs conventional maize, natural infestation with Heliothis spp.; conditions: for control of Heliothis on plot (a): plot (a) maize cv. KnockOut, spray 200, 100, 50, 10, 5, 1 ppm, evaluation 6 days later; for control level on plot (b): plot (b) conventional maize, also treated with 200, 100, 50, 10, 5, 1 ppm of the endotoxin expressed by KnockOut, 6 days
Procedure: as §3
as §3, with “sp” for “spp.”, “abamectin.” for “spinosad.”
as §3, with “sp” for “spp.”, “emamectin benzoate.” for “spinosad.”

[5] = test system: Anthonomus grandis adults; assay: Spray action on transgenic cotton plants against Anthonomus grandis adults
Text: as §1
as §1, with “abamectin” for “emamectin-benzoate”
as §1, with “spinosad” for “emamectin-benzoate”
as §1, with “δ-endotoxin CryIa(c)” for “δ-endotoxin CryIIIA”, “of spinosad” for “of emamectin-benzoate”, “comprising spinosad” for “comprising emamectin-benzoate”
as §2

[6] = test system: Spodoptera spp.; assay: Plot test, maize cv. KnockOut vs conventional maize, natural infestation with Spodoptera spp.; conditions: for control of Spodoptera spp. on plot (a): plot (a) maize cv. KnockOut, spray 200, 100, 50, 10, 5, 1 ppm, evaluation 6 days later; for control level on plot (b): plot (b) conventional maize, also treated with 200, 100, 50, 10, 5, 1 ppm of the endotoxin expressed by KnockOut, 6 days
Procedure: as §3
as §3, with “sp” for “spp.”, “abamectin.” for “spinosad.”
as §3, with “sp” for “spp.”, “emamectin benzoate.” for “spinosad.”

[7] = non-transgenic cotton, spray mixture with conventional CryIIIA-toxin, each 100, 50, 10, 5, 1 ppm (comparison to CryIIIA cotton)
[8] = non-transgenic cotton, spray mixture with conventional CryIIIA-toxin, each 100, 50, 10, 5, 1 ppm (comparison to CryIa(c) cotton)
[9] = transgenic cotton expressing δ-endotoxin CryIIIA, spray 100, 50, 10, 5, 1 ppm, evaluation 3 to 10 days
[10] = transgenic cotton expressing δ-endotoxin CryIa(c), spray 100, 50, 10, 5, 1 ppm, evaluation 3 to 10 days

Row | Substance | control of the tested insects (% action: reduction in population or feeding damage) [1, 7] | control of the tested insects (% action: reduction in population or feeding damage) [1, 8] | control of the tested insects (% action: reduction in population or feeding damage) [1, 9] | control of the tested insects (% action: reduction in population or feeding damage) [1, 10] | control of the tested insects (% action: reduction in population or feeding damage) [2, 7] | control of the tested insects (% action: reduction in population or feeding damage) [2, 8] | control of the tested insects (% action: reduction in population or feeding damage) [2, 9] | control of the tested insects (% action: reduction in population or feeding damage) [2, 10] | control of Ostrinia nubilalis on plot (a) [3] | control level on plot (b) [3] | control of Heliothis on plot (a) [4] | control level on plot (b) [4] | control of the tested insects (% action: reduction in population or feeding damage) [5, 7] | control of the tested insects (% action: reduction in population or feeding damage) [5, 8] | control of the tested insects (% action: reduction in population or feeding damage) [5, 9] | control of the tested insects (% action: reduction in population or feeding damage) [5, 10] | control of Spodoptera spp. on plot (a) [6] | control level on plot (b) [6]
1 | abamectin | insufficient | insufficient | superior | superior | insufficient | insufficient | superior | superior | Improved control | ≤ 80% | Improved control | ≤ 80% | insufficient | insufficient | superior | superior | Improved control | ≤ 80%
2 | emamectin-benzoate | insufficient | insufficient | superior | superior | insufficient | insufficient | superior | superior | Improved control | ≤ 80% | Improved control | ≤ 80% | insufficient | insufficient | superior | superior | Improved control | ≤ 80%
3 | spinosad | insufficient | insufficient | superior | superior | insufficient | insufficient | superior | superior | Improved control | ≤ 80% | Improved control | ≤ 80% | insufficient | insufficient | superior | superior | Improved control | ≤ 80%
